Experimental data as given in patent publication US20040224979A1, “Treating obesity with selective androgen receptor modulators” (priority 2002, published 2004).

What was measured:
androgen receptor (AR) = assay: In vitro androgen receptor binding affinity
[1] = Whole body DEXA body composition (lean body mass, body fat) in ovariectomized female rats; format: in vivo, Sprague-Dawley rats; settings: 3 mg/day s.c., 90 day time point
Procedure: Two hundred and thirty (230) female Sprague-Dawley rats (23 weeks of age) were used in these studies.
Animals were randomized (n=10 per group) into each of the treatment groups outlined in Table 2 below. Animals assigned to groups 6 through 23 were ovariectomized on day 0 of the experiment.
Drug administration with Compound VI, bicalutamide (an antiandrogen), and/or DHT commenced on day 0 or 90 with the compound of interest administered via daily subcutaneous injection (0.20 mL) and continued until day 120 or 210 of the study. Drug solutions were prepared daily by dissolving in DMSO and dilution with PEG 300. The percentage of DMSO was the same in all vehicles (17.6%), as determined based on the solubility of the test compounds.
Whole body DEXA images were collected up to 120 or 210 days after ovariectomy, as described in Table 2. Lean body mass (LBM), fat mass (FM) and total body mass (TBM) were determined at each time point.

leptin = assay: Serum leptin levels in intact male rats (ELISA) after SARM treatment by osmotic pump; settings: for Leptin, percent of control / Normalized Leptin, percent of control: control = 100%; for Normalized Leptin: serum leptin normalized to body weight; for Leptin: serum, intact male rats, 500 μg/day s.c. osmotic pump
Procedure: All doses were delivered by subcutaneous placement of Alzet osmotic pumps.
Seven, 14 and 28 days after pump implantation, animals were exsanguinated under ketamine/xylazine anesthesia. Serum was collected, separated into 10 aliquots and stored at −80° C.
Serum concentrations of testosterone (T), leptin, Insulin and IGF-1 were determined by commercially available ELISA kits.

[2] = Organ weights in intact male rats (tissue-selective anabolic activity); format: in vivo, Sprague-Dawley rats; settings: 500 μg/day

| SMILES | in vitro androgen receptor (AR) binding affinity (androgen receptor (AR)) | decrease in body fat as compared to the ovariectomized (OVX) control group [1] [%] | increase in lean mass as compared to the ovariectomized (OVX) control group [1] [%] | Leptin, percent of control (leptin; 1 w) | Normalized Leptin, percent of control (leptin; 1 w) | Leptin, percent of control (leptin; 2 w) | Normalized Leptin, percent of control (leptin; 2 w) | Leptin, percent of control (leptin; 4 w) | Normalized Leptin, percent of control (leptin; 4 w) | Normalized Leptin (leptin; 1 w) | Normalized Leptin (leptin; 2 w) | Normalized Leptin (leptin; 4 w) | Leptin (leptin; 1 w) [ng/mL] | Leptin (leptin; 2 w) [ng/mL] | Leptin (leptin; 4 w) [ng/mL] | changes in organ weight [2] | decrease of serum leptin levels compared with the vehicle control (leptin; 2 w) [%] | decrease of serum leptin levels compared with the vehicle control (leptin; 4 w) [%] |
| --- | --- | --- | --- | --- | --- | --- | --- | --- | --- | --- | --- | --- | --- | --- | --- | --- | --- | --- |
| CC(=O)Nc1ccc(OC[C@](C)(O)C(=O)Nc2ccc([N+](=O)[O-])c(C(F)(F)F)c2)cc1 [Compound VI] | high | 3.6 | 9 | (96%) | (93%) | (107%) | (104%) | (104%) | (105%) | 6.65 ± 1.07 (pg/ml)/BW (g) | 8.99 ± 0.99 (pg/ml)/BW (g) | 18.7 ± 4.2 (pg/ml)/BW (g) | 1.71 ± 0.31 | 2.81 ± 0.29 | 6.62 ± 1.12 | tissue-selective anabolic activity |  |  |
| CCC(=O)O[C@H]1CC[C@H]2[C@@H]3CCC4=CC(=O)CC[C@]4(C)[C@H]3CC[C@]12C [TP, testosterone propionate, reference compound] |  |  |  | (102%) | (93%) | (84%) | (92%) | (92%) | (90%) | 6.67 ± 1.96 (pg/ml)/BW (g) | 7.04 ± 1.97 (pg/ml)/BW (g) | 16.0 ± 1.7 (pg/ml)/BW (g) | 1.74 ± 0.53 | 2.19 ± 0.67 | 5.89 ± 0.77 |  |  |  |
| C[C@](O)(COc1ccc(F)cc1)C(=O)Nc1ccc([N+](=O)[O-])c(C(F)(F)F)c1 [Compound VII] |  |  |  | (84%) | (81%) | (64%) | (63%) | (77%) | (78%) | 5.80 ± 1.73 (pg/ml)/BW (g) | 5.47 ± 1.03 (pg/ml)/BW (g) | 13.82 ± 1.17 (pg/ml)/BW (g) | 1.45 ± 0.47 | 1.68 ± 0.29 | 4.89 ± 0.61 | tissue-selective anabolic activity | 36 | 22 |
